Reference: publication PMC6591251, “Discovery of potent necroptosis inhibitors targeting RIPK1 kinase activity for the treatment of inflammatory disorder and cancer metastasis” (Cell Death & Disease, 2019)

Assays:
Assay in all cases: RBC kinase panel
Type in all cases: biochemical
Conditions in all cases: ATP 10 μM, Data1, Data2
CK1g3 = molecular target: T1, CK1g3 (Homo sapiens, UniProt Q9Y6M4)
T1 construct: purchased Reaction Biology Corporation
Method: (§1) PK68 was tested at 1 μM in duplicate against a panel of 369 human kinases at Reaction Biology Corporation. Results are viewed in the human kinome phylogenetic tree.
(§2) ^a Compound PK68 was tested at 1 μM in duplicate against 369 kinases using the RBC kinase panel service of Reaction Biology Corporation. All the ATP concentrations used were 10 μM. […] Full protocol details are available at http://www.reactionbiology.com.

Aurora C = molecular target: T2, Aurora C (Homo sapiens, UniProt Q9UQB9)
T2 construct: purchased Reaction Biology Corporation
Method: as §1, §2

VRK1 = molecular target: T3, VRK1 (Homo sapiens, UniProt Q99986)
T3 construct: purchased Reaction Biology Corporation
Method: as §1, §2

IRAK1 = molecular target: T4, IRAK1 (Homo sapiens, UniProt P51617)
T4 construct: purchased Reaction Biology Corporation
Method: as §1, §2

PLK2 = molecular target: T5, PLK2 (Homo sapiens, UniProt Q9NYY3)
T5 construct: purchased Reaction Biology Corporation
Method: as §1, §2

LIMK1 = molecular target: T6, LIMK1 (Homo sapiens, UniProt P53667)
T6 construct: purchased Reaction Biology Corporation
Method: as §1, §2

NEK9 = molecular target: T7, NEK9 (Homo sapiens, UniProt Q8TD19)
T7 construct: purchased Reaction Biology Corporation
Method: as §1, §2

CDK4/cyclin D1 = molecular target: T8, CDK4/cyclin D1 (Homo sapiens, UniProt P11802)
T8 construct: purchased Reaction Biology Corporation
Method: as §1, §2

CSK = molecular target: T9, CSK (Homo sapiens, UniProt P41240)
T9 construct: purchased Reaction Biology Corporation
Method: as §1, §2

ERBB4/HER4 = molecular target: T10, ERBB4/HER4 (Homo sapiens, UniProt Q15303)
T10 construct: purchased Reaction Biology Corporation
Method: as §1, §2

MYLK3 = molecular target: T11, MYLK3 (Homo sapiens, UniProt Q32MK0)
T11 construct: purchased Reaction Biology Corporation
Method: as §1, §2

ROCK1 = molecular target: T12, ROCK1 (Homo sapiens, UniProt Q13464)
T12 construct: purchased Reaction Biology Corporation
Method: as §1, §2

PKD2/PRKD2 = molecular target: T13, PKD2/PRKD2 (Homo sapiens, UniProt Q9BZL6)
T13 construct: purchased Reaction Biology Corporation
Method: as §1, §2

SGK1 = molecular target: T14, SGK1 (Homo sapiens, UniProt O00141)
T14 construct: purchased Reaction Biology Corporation
Method: as §1, §2

P38g = molecular target: T15, P38g (Homo sapiens, UniProt P53778)
T15 construct: purchased Reaction Biology Corporation
Method: as §1, §2

CLK1 = molecular target: T16, CLK1 (Homo sapiens, UniProt P49759)
T16 construct: purchased Reaction Biology Corporation
Method: as §1, §2

ALK4/ACVR1B = molecular target: T17, ALK4/ACVR1B (Homo sapiens, UniProt P36896)
T17 construct: purchased Reaction Biology Corporation
Method: as §1, §2

CDK19/cyclin C = molecular target: T18, CDK19/cyclin C (Homo sapiens, UniProt Q9BWU1)
T18 construct: purchased Reaction Biology Corporation
Method: as §1, §2

TGFBR2 = molecular target: T19, TGFBR2 (Homo sapiens, UniProt P37173)
T19 construct: purchased Reaction Biology Corporation
Method: as §1, §2

CDK7/cyclin H = molecular target: T20, CDK7/cyclin H (Homo sapiens, UniProt P50613)
T20 construct: purchased Reaction Biology Corporation
Method: as §1, §2

SLK/STK2 = molecular target: T21, SLK/STK2 (Homo sapiens, UniProt Q9H2G2)
T21 construct: purchased Reaction Biology Corporation
Method: as §1, §2

LYN B = molecular target: T22, LYN B (Homo sapiens, UniProt P07948)
T22 construct: purchased Reaction Biology Corporation
Method: as §1, §2

Aurora A = molecular target: T23, Aurora A (Homo sapiens, UniProt O14965)
T23 construct: purchased Reaction Biology Corporation
Method: as §1, §2

RIPK2 = molecular target: T24, RIPK2 (Homo sapiens, UniProt O43353)
T24 construct: purchased Reaction Biology Corporation
Method: as §1, §2

MEK2 = molecular target: T25, MEK2 (Homo sapiens, UniProt P36507)
T25 construct: purchased Reaction Biology Corporation
Method: as §1, §2

VRK2 = molecular target: T26, VRK2 (Homo sapiens, UniProt Q86Y07)
T26 construct: purchased Reaction Biology Corporation
Method: as §1, §2

DCAMKL1 = molecular target: T27, DCAMKL1 (Homo sapiens, UniProt O15075)
T27 construct: purchased Reaction Biology Corporation
Method: as §1, §2

NEK2 = molecular target: T28, NEK2 (Homo sapiens, UniProt P51955)
T28 construct: purchased Reaction Biology Corporation
Method: as §1, §2

CAMK1d = molecular target: T29, CAMK1d (Homo sapiens, UniProt Q8IU85)
T29 construct: purchased Reaction Biology Corporation
Method: as §1, §2

CDK18/cyclin Y (PCTK3) = molecular target: T30, CDK18/cyclin Y (PCTK3) (Homo sapiens, UniProt Q07002)
T30 construct: purchased Reaction Biology Corporation
Method: as §1, §2

TLK2 = molecular target: T31, TLK2 (Homo sapiens, UniProt Q86UE8)
T31 construct: purchased Reaction Biology Corporation
Method: as §1, §2

GRK5 = molecular target: T32, GRK5 (Homo sapiens, UniProt P34947)
T32 construct: purchased Reaction Biology Corporation
Method: as §1, §2

CDK4/cyclin D3 = molecular target: T33, CDK4/cyclin D3 (Homo sapiens, UniProt P11802)
T33 construct: purchased Reaction Biology Corporation
Method: as §1, §2

T31 sequence (Q86UE8 whole entry): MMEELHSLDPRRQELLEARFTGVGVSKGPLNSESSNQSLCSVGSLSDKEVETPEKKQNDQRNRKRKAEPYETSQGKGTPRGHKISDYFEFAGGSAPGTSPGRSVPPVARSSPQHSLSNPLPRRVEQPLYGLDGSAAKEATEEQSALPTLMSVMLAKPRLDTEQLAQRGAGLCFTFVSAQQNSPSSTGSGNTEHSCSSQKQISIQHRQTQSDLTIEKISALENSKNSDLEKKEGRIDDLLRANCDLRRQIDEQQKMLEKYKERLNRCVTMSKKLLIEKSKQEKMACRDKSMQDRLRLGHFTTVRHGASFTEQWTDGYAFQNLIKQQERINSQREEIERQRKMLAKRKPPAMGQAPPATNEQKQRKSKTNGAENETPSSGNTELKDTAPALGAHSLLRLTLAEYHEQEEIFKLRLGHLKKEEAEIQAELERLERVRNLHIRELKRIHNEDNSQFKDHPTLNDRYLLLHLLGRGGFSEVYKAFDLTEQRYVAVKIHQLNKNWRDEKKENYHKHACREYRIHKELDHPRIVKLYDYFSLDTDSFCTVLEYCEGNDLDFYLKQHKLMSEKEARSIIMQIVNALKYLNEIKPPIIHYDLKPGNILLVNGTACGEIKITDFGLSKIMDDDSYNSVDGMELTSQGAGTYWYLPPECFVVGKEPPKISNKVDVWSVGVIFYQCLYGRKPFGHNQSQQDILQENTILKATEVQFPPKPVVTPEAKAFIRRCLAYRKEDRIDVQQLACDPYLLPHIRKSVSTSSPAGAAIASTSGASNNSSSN
T9 sequence (P41240 whole entry): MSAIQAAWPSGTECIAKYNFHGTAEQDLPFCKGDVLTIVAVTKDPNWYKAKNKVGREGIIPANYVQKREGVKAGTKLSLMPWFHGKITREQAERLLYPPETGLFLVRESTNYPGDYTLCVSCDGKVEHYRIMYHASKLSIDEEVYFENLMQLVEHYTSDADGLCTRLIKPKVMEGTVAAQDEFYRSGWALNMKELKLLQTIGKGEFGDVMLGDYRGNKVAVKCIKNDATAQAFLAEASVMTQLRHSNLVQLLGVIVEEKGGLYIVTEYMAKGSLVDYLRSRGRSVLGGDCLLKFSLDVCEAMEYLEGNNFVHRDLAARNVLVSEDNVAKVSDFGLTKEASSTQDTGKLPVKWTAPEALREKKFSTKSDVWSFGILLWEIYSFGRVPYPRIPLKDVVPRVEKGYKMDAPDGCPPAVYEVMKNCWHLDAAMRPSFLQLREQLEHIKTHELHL
T5 sequence (Q9NYY3 whole entry): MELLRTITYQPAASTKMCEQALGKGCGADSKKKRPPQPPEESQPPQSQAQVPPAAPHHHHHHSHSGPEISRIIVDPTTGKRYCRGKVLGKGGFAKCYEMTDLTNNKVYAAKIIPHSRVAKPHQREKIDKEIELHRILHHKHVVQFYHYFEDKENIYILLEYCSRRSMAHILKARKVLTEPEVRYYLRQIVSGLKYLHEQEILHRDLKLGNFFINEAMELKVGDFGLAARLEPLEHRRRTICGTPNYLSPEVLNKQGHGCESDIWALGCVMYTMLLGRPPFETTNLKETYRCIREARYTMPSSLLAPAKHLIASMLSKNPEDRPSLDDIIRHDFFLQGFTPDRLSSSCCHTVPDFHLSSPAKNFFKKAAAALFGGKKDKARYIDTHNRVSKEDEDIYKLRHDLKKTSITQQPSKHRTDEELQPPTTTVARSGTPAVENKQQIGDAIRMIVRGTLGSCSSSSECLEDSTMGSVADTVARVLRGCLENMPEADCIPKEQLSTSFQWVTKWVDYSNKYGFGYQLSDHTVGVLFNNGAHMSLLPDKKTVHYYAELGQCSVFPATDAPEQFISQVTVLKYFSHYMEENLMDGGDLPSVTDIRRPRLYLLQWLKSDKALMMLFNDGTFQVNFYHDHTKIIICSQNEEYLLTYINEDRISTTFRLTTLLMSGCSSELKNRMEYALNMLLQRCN
T3 sequence (Q99986 whole entry): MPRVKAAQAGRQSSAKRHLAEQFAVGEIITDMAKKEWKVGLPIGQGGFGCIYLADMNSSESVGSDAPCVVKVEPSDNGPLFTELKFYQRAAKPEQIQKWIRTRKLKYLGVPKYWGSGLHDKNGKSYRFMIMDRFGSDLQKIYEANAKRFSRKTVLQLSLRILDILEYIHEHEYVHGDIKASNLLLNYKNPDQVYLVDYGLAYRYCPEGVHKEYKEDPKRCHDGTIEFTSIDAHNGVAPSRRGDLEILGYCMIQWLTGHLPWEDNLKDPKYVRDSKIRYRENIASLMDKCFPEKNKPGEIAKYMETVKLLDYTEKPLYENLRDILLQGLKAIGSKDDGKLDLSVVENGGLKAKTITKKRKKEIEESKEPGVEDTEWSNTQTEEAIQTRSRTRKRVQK
T19 sequence (P37173 23-567): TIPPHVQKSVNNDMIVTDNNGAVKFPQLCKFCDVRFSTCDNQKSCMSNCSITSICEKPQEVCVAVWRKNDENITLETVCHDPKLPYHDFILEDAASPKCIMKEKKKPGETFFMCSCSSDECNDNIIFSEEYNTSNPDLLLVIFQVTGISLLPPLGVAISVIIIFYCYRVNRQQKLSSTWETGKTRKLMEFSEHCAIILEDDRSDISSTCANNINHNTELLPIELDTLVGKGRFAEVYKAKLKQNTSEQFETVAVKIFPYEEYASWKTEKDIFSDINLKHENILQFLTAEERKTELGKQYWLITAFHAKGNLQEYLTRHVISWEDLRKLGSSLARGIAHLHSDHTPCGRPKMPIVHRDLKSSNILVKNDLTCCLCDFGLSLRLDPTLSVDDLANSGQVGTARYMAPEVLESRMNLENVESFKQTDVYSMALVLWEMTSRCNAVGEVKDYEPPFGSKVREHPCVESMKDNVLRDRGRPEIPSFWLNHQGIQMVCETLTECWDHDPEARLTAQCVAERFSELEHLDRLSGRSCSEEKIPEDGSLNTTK
T8 sequence (P11802 whole entry): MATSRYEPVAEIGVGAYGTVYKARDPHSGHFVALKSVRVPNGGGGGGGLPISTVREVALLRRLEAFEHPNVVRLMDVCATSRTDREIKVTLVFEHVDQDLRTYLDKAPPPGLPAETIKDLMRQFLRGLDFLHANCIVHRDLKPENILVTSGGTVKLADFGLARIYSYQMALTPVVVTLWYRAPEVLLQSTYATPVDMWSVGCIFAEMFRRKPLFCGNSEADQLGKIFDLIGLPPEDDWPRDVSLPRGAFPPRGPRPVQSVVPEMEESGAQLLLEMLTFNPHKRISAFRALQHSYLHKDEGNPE
T8 sequence (P24385 whole entry partner): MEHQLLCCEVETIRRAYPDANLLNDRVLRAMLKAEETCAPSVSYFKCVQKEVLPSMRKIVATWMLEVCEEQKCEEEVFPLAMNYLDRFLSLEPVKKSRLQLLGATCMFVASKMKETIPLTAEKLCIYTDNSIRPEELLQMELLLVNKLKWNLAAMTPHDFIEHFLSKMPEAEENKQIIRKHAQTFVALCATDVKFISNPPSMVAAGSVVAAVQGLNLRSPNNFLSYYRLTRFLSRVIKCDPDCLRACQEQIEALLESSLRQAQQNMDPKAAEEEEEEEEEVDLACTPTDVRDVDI
T33 sequence (P11802 whole entry): as the sequence (P11802 whole entry) above
T33 sequence (P30281 whole entry partner): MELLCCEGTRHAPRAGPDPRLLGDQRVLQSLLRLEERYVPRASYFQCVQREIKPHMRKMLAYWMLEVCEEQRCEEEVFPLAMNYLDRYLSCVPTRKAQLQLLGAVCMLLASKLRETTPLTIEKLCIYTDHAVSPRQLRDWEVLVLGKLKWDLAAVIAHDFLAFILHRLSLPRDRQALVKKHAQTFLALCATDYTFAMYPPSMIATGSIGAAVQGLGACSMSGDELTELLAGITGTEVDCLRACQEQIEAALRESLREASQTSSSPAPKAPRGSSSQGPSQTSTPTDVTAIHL
T25 sequence (P36507 whole entry): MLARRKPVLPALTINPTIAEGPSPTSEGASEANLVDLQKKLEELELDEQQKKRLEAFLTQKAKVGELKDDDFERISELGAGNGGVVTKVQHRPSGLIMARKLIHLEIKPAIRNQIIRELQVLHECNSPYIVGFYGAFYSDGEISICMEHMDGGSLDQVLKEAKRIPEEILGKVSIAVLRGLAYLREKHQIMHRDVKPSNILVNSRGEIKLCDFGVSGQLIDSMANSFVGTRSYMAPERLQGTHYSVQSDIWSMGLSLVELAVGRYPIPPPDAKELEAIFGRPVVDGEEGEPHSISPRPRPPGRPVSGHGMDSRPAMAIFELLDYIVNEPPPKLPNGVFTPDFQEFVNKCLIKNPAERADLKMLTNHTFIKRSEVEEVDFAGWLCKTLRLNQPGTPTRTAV
T4 sequence (P51617 whole entry): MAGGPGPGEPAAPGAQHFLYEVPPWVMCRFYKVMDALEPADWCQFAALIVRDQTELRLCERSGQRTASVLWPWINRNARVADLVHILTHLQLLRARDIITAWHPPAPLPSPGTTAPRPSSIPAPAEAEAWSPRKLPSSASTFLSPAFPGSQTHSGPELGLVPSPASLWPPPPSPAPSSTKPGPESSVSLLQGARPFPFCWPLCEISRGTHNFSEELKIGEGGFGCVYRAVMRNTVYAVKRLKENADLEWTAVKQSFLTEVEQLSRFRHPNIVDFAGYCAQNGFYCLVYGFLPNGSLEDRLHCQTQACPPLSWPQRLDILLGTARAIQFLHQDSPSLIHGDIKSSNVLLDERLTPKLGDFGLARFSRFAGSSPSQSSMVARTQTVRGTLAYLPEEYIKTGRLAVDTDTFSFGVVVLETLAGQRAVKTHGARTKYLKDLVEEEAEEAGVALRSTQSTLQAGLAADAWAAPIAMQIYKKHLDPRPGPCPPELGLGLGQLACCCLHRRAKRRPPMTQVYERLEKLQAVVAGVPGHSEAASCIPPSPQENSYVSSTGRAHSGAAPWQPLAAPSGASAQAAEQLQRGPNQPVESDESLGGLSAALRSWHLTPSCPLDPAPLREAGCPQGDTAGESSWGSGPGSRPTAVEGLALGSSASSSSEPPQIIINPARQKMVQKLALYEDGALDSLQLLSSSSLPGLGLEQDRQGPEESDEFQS

CC(=O)Nc1nc2ccc(-c3cnc(C)c(NC(=O)OC4CCCCC4)c3)cc2s1 [PK68, cyclohexyl (5-(2-acetamidobenzo[d]thiazol-6-yl)-2-methylpyridin-3-yl)carbamate]
Activity% (CK1g3; 1 μM): 87.02%
activity at 1 µM (CK1g3): 87.1%
Activity% (Aurora C; 1 μM): 92.22%
activity at 1 µM (Aurora C): 94.1%
Activity% (VRK1; 1 μM): 104.78%
activity at 1 µM (VRK1): 105%
Activity% (IRAK1; 1 μM): 90.54%
activity at 1 µM (IRAK1): 92.5%
Activity% (PLK2; 1 μM): 102.02%
activity at 1 µM (PLK2): 102%
Activity% (LIMK1; 1 μM): 63.37%
activity at 1 µM (LIMK1): 63.4%
Activity% (NEK9; 1 μM): 90.50%
activity at 1 µM (NEK9): 90.9%
Activity% (CDK4/cyclin D1; 1 μM): 88.58%
activity at 1 µM (CDK4/cyclin D1): 88.8%
Activity% (CSK; 1 μM): 91.36%
activity at 1 µM (CSK): 92.8%
Activity% (ERBB4/HER4; 1 μM): 99.02%
activity at 1 µM (ERBB4/HER4): 99.7%
Activity% (MYLK3; 1 μM): 100.10%
activity at 1 µM (MYLK3): 101%
Activity% (ROCK1; 1 μM): 99.31%
activity at 1 µM (ROCK1): 101%
Activity% (PKD2/PRKD2; 1 μM): 90.63%
activity at 1 µM (PKD2/PRKD2): 93.9%
Activity% (SGK1; 1 μM): 93.47%
activity at 1 µM (SGK1): 93.8%
Activity% (P38g; 1 μM): 105.38%
activity at 1 µM (P38g): 109%
Activity% (CLK1; 1 μM): 80.72%
activity at 1 µM (CLK1): 81.9%
Activity% (ALK4/ACVR1B; 1 μM): 95.17%
activity at 1 µM (ALK4/ACVR1B): 95.5%
Activity% (CDK19/cyclin C; 1 μM): 99.34%
activity at 1 µM (CDK19/cyclin C): 101%
Activity% (TGFBR2; 1 μM): 114.72%
activity at 1 µM (TGFBR2): 115%
Activity% (CDK7/cyclin H; 1 μM): 87.73%
activity at 1 µM (CDK7/cyclin H): 89.2%
Activity% (SLK/STK2; 1 μM): 91.29%
activity at 1 µM (SLK/STK2): 91.9%
Activity% (LYN B; 1 μM): 97.70%
activity at 1 µM (LYN B): 98%
Activity% (Aurora A; 1 μM): 95.24%
activity at 1 µM (Aurora A): 95.4%
Activity% (RIPK2; 1 μM): 85.19%
activity at 1 µM (RIPK2): 91.2%
Activity% (MEK2; 1 μM): 97.14%
activity at 1 µM (MEK2): 97.2%
Activity% (VRK2; 1 μM): 93.34%
activity at 1 µM (VRK2): 94.4%
Activity% (DCAMKL1; 1 μM): 87.59%
activity at 1 µM (DCAMKL1): 87.7%
Activity% (NEK2; 1 μM): 112.29%
activity at 1 µM (NEK2): 115%
Activity% (CAMK1d; 1 μM): 100.76%
activity at 1 µM (CAMK1d): 103%
Activity% (CDK18/cyclin Y (PCTK3); 1 μM): 106.96%
activity at 1 µM (CDK18/cyclin Y (PCTK3)): 107%
Activity% (TLK2; 1 μM): 96.86%
activity at 1 µM (TLK2): 98.1%
Activity% (GRK5; 1 μM): 103.56%
activity at 1 µM (GRK5): 104%
Activity% (CDK4/cyclin D3; 1 μM): 93.75%
activity at 1 µM (CDK4/cyclin D3): 94.2%
